The source of these data is patent publication US20250195511A1, “INDAZOLE DERIVATIVES USEFUL AS INHIBITORS OF NOD-LIKE RECEPTOR PROTEIN 3” (Merck Sharp & Dohme LLC, priority 2023, published 2025).

The term EC50 denotes the concentration giving half of the maximal effect.

This assay concerns NLRP3 inflammasome. Description: NLRP3 inflammasome activation: ASC-SPECK formation in gramicidin-stimulated THP-1 cells. The assay is classed as cell-based. To be noted: Homo sapiens, THP-1, inhibition of ASC SPECK formation; PMA-treated human monocytic THP-1 cells, compound 1 h before 12.5 μg/ml gramicidin, 3-hour treatment. In outline: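 Undifferentiated human THP-1 cells primed overnight with 10 ng/ml PMA, then given compounds 1 h before 12.5 μg/ml gramicidin for 3 h at 37° C in RPMI with 0.01% BSA. Fixed cells immunostained for ASC with DRAQ5 nuclear counterstain; DRAQ5-positive cells with ASC specks counted by high-content imaging; EC50 from curve fitting.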

Regarding `Cc1cc(C(F)(F)F)cc(O)c1-c1cnc2cn([C@H]3C[C@@H](CC#N)C3)nc2n1` [Example 18, 2-((1s,3s)-3-(6-(2-hydroxy-6-methyl-4-(trifluoromethyl)phenyl)-2H-pyrazolo[3,4-b]pyrazin-2-yl)cyclobutyl)acetonitrile], the EC50 came to 465 nM.
To `Cc1cc(C(F)(F)F)cc(O)c1-c1cnc2cn(C34CCC(O)(C3)C4)nc2n1` [Example 26, 4-[6-[2-hydroxy-6-methyl-4-(trifluoromethyl)phenyl]pyrazolo[3,4-b]pyrazin-2-yl]bicyclo[2.1.1]hexan-1-ol] belongs 51 nM; to `Cc1cc(C(F)(F)F)cc(O)c1-c1cnc2cn(C34COC(C)(C3)C4)nc2n1` [Example 27, 3-methyl-2-[2-(1-methyl-2-oxabicyclo[2.1.1]hexan-4-yl)pyrazolo[3,4-b]pyrazin-6-yl]-5-(trifluoromethyl)phenol], 193 nM.
For the compound `Cc1cc(C(F)(F)F)cc(O)c1-c1cnc2cn(C34CCC(O)(CC3)C4)nc2n1` [Example 28, 4-[6-[2-hydroxy-6-methyl-4-(trifluoromethyl)phenyl]pyrazolo[3,4-b]pyrazin-2-yl]norboman-1-ol], the EC50 was 55 nM.
Take `Cc1cc(C(F)(F)F)cc(O)c1-c1cnc2cn([C@]3(C)CCS(=O)(=O)C3)nc2n1` [Example 29, 3-methyl-2-[2-[(3R)-3-methyl-1,1-dioxo-thiolan-3-yl]pyrazolo[3,4-b]pyrazin-6-yl]-5-(trifluoromethyl)phenol]: the EC50 is 232 nM.
Regarding `Cc1cc(C(F)(F)F)cc(O)c1-c1cnc2cn([C@@H]3CCS(=O)(=O)C3)nc2n1` [Example 30, 2-[2-[(3R)-1,1-dioxothiolan-3-yl]pyrazolo[3,4-b]pyrazin-6-yl]-3-methyl-5-(trifluoromethyl)phenol], the EC50 is 407 nM.
Regarding `Cc1cc(C(F)(F)F)cc(O)c1-c1cnc2cn([C@H]3CCS(=O)(=O)C3)nc2n1` [Example 31, 2-[2-[(3S)-1,1-dioxothiolan-3-yl]pyrazolo[3,4-b]pyrazin-6-yl]-3-methyl-5-(trifluoromethyl)phenol], the EC50 amounted to 265 nM.
As for `Cc1cc(C(F)(F)F)cc(O)c1-c1cnc2cn([C@H]3COC[C@@H]3O)nc2n1` [Example 32, (3R,4S)-4-[6-[2-hydroxy-6-methyl-4-(trifluoromethyl)phenyl]pyrazolo[3,4-b]pyrazin-2-yl]tetrahydrofuran-3-ol], the EC50 is 34 nM.
Turning to `Cc1cc(C(F)(F)F)cc(O)c1-c1cnc2cn([C@@H]3COC[C@H]3O)nc2n1` [Example 33, (3S,4R)-4-[6-[2-hydroxy-6-methyl-4-(trifluoromethyl)phenyl]pyrazolo[3,4-b]pyrazin-2-yl]tetrahydrofuran-3-ol], the EC50 turned out to be 71 nM.
Turning to `Cc1cc(C(F)(F)F)cc(O)c1-c1cnc2cn([C@@H]3COCC[C@H]3O)nc2n1` [Example 34, (3R,4R)-3-[6-[2-hydroxy-6-methyl-4-(trifluoromethyl)phenyl]pyrazolo[3,4-b]pyrazin-2-yl]tetrahydropyran-4-ol], the EC50 was determined as 44 nM.
With `Cc1cc(C(F)(F)F)cc(O)c1-c1cnc2cn([C@H]3COCC[C@@H]3O)nc2n1` [Example 35, (3S,4S)-3-[6-[2-hydroxy-6-methyl-4-(trifluoromethyl)phenyl]pyrazolo[3,4-b]pyrazin-2-yl]tetrahydropyran-4-ol], the EC50 is 37 nM.
For the compound `Cc1cc(C(F)(F)F)cc(O)c1-c1cnc2cn([C@H]3C[C@H](C#N)C3)nc2n1` [Example 36, (1R,3R)-3-(6-(2-hydroxy-6-methyl-4-(trifluoromethyl)phenyl)-2H-pyrazolo[3,4-b]pyrazin-2-yl)cyclobutane-1-carbonitrile], the EC50 came out at 18 nM.
Regarding `COCC12CC(n3cc4ncc(-c5c(C)cc(C(F)(F)F)cc5O)nc4n3)(C1)C2` [Example 37, 2-[2-[3-(methoxymethyl)-1-bicyclo[1.1.1]pentanyl]pyrazolo[3,4-b]pyrazin-6-yl]-3-methyl-5-(trifluoromethyl)phenol], the EC50 is 220 nM.
Turning to `COC12CC(n3cc4ncc(-c5c(C)cc(C(F)(F)F)cc5O)nc4n3)(C1)C2` [Example 38, 2-[2-(3-methoxy-1-bicyclo[1.1.1]pentanyl)pyrazolo[3,4-b]pyrazin-6-yl]-3-methyl-5-(trifluoromethyl)phenol], the EC50 is 141 nM.
Take `Cc1cc(C(F)(F)F)cc(O)c1-c1cnc2cn(C34CC(C(F)F)(C3)C4)nc2n1` [Example 39, 2-[2-[3-(difluoromethyl)-1-bicyclo[1.1.1]pentanyl]pyrazolo[3,4-b]pyrazin-6-yl]-3-methyl-5-(trifluoromethyl)phenol]: the EC50 stood at 90 nM.
For `Cc1cc(C(F)(F)F)cc(O)c1-c1cnc2cn([C@H]3CC[C@H](C#N)CC3)nc2n1` [Example 40, (1R,4R)-4-(6-(2-hydroxy-6-methyl-4-(trifluoromethyl)phenyl)-2H-pyrazolo[3,4-b]pyrazin-2-yl)cyclohexane-1-carbonitrile] the value was 81 nM.
Turning to `Cc1cc(C(F)(F)F)cc(O)c1-c1cnc2cn(C34COC(CO)(C3)C4)nc2n1` [Example 41, 2-[2-[1-(hydroxymethyl)-2-oxabicyclo[2.1.1]hexan-4-yl]pyrazolo[3,4-b]pyrazin-6-yl]-3-methyl-5-(trifluoromethyl)phenol], the EC50 was found to be 78 nM.
Take `Cc1cc(C(F)(F)F)cc(O)c1-c1cnc2cn(C34CCC(C3)C4)nc2n1` [Example 42, 2-[2-(1-bicyclo[2.1.1]hexanyl)pyrazolo[3,4-b]pyrazin-6-yl]-3-methyl-5-(trifluoromethyl)phenol]: the EC50 is 70 nM.
In the case of `Cc1cc(C(F)(F)F)cc(O)c1-c1cnc2cn(C34CC(CO)(C3)C4)nc2n1` [Example 43, 2-[2-[3-(hydroxymethyl)-1-bicyclo[1.1.1]pentanyl]pyrazolo[3,4-b]pyrazin-6-yl]-3-methyl-5-(trifluoromethyl)phenol], the EC50 was 26 nM.
As to `Cc1cc(C(F)(F)F)cc(O)c1-c1cnc2cn([C@H]3CC[C@@H](O)CC3)nc2n1` [Example 44, 2-(2-((1S,4S)-4-hydroxycyclohexyl)-2H-pyrazolo[3,4-b]pyrazin-6-yl)-3-methyl-5-(trifluoromethyl)phenol], the EC50 turned out to be 121 nM.
To `Cc1cc(C(F)(F)F)cc(O)c1-c1cnc2cn(C3CC4CCC(C3)O4)nc2n1` (stereo not drawn) [Example 45, 3-methyl-2-[2-(8-oxabicyclo[3.2.1]octan-3-yl)pyrazolo[3,4-b]pyrazin-6-yl]-5-(trifluoromethyl)phenol] belongs 70 nM.
To `Cc1cc(C(F)(F)F)cc(O)c1-c1cnc2cn(C34CC(CC#N)(C3)C4)nc2n1` [Example 46, 2-[3-[6-[2-hydroxy-6-methyl-4-(trifluoromethyl)phenyl]pyrazolo[3,4-b]pyrazin-2-yl]-1-bicyclo[1.1.1]pentanyl]acetonitrile] belongs 213 nM; to `Cc1cc(C(F)(F)F)cc(O)c1-c1cnc2cn(C34CCC(C#N)(C3)C4)nc2n1` [Example 47, 4-[6-[2-hydroxy-6-methyl-4-(trifluoromethyl)phenyl]pyrazolo[3,4-b]pyrazin-2-yl]bicyclo[2.1.1]hexane-1-carbonitrile], 61 nM.
Turning to `Cc1cc(C(F)(F)F)cc(O)c1-c1cnc2cn(C34CC(F)(C3)C4)nc2n1` [Example 48, 2-[2-(3-fluoro-1-bicyclo[1.1.1]pentanyl)pyrazolo[3,4-b]pyrazin-6-yl]-3-methyl-5-(trifluoromethyl)phenol], the EC50 was 65 nM.
To `Cc1cc(C(F)(F)F)cc(O)c1-c1cnc2cn([C@H]3C[C@H](Cl)C3)nc2n1` [Example 49, 2-(2-((1R,3R)-3-chlorocyclobutyl)-2H-pyrazolo[3,4-b]pyrazin-6-yl)-3-methyl-5-(trifluoromethyl)phenol] belongs 31 nM; to `Cc1cc(C(F)(F)F)cc(O)c1-c1cnc2cn([C@@H]3C[C@H]3C)nc2n1` [Example 50, 3-methyl-2-[2-[(1R,2R)-2-methylcyclopropyl]pyrazolo[3,4-b]pyrazin-6-yl]-5-(trifluoromethyl)phenol], 103 nM; to `Cc1cc(C(F)(F)F)cc(O)c1-c1cnc2cn(C3(C)CCOCC3)nc2n1` [Example 51, 3-methyl-2-[2-(4-methyltetrahydropyran-4-yl)pyrazolo[3,4-b]pyrazin-6-yl]-5-(trifluoromethyl)phenol], 142 nM.
For `Cc1cc(C(F)(F)F)cc(O)c1-c1cnc2cn([C@H]3C[C@@H]3C)nc2n1` [Example 52, 3-methyl-2-[2-[(1S,2S)-2-methylcyclopropyl]pyrazolo[3,4-b]pyrazin-6-yl]-5-(trifluoromethyl)phenol] the value was 40 nM; for `Cc1cc(Cl)cc(O)c1-c1cnc2cn([C@H]3C[C@H](F)C3)nc2n1` [Example 55, 5-chloro-2-(2-((1R,3R)-3-fluorocyclobutyl)-2H-pyrazolo[3,4-b]pyrazin-6-yl)-3-methylphenol], 27 nM.
In the case of `Cc1cc(Cl)cc(O)c1-c1cnc2cn([C@@H]3[C@@H]4COC[C@@H]43)nc2n1` [Example 56, 2-(2-((1R,5S,6S)-3-oxabicyclo[3.1.0]hexan-6-yl)-2H-pyrazolo[3,4-b]pyrazin-6-yl)-5-chloro-3-methylphenol], the EC50 was 42 nM.
To `Cc1cc(Cl)cc(O)c1-c1cnc2cn([C@H]3[C@@H]4COC[C@@H]43)nc2n1` [Example 57, 2-(2-((1R,5S,6R)-3-oxabicyclo[3.1.0]hexan-6-yl)-2H-pyrazolo[3,4-b]pyrazin-6-yl)-5-chloro-3-methylphenol] belongs 60 nM; to `CCN1C[C@H](Cn2cc3ncc(-c4c(C)cc(C(F)(F)F)cc4O)nc3n2)OC1=O` [Example 110, (R)-3-ethyl-5-((6-(2-hydroxy-6-methyl-4-(trifluoromethyl)phenyl)-2H-pyrazolo[3,4-b]pyrazin-2-yl)methyl)oxazolidin-2-one], 168 nM; to `Cc1cc(C(F)(F)F)cc(O)c1-c1cnc2nn([C@H]3C[C@H](F)C3)nc2n1` [Example 121, 2-(2-((1R,3R)-3-fluorocyclobutyl)-2H-[1,2,3]triazolo[4,5-b]pyrazin-5-yl)-3-methyl-5-(trifluoromethyl)phenol], 411 nM.
